# Earlier results as cited in patent publication US6635288B2, “Composition for suppressing cellular fibrousing and method for preparing an extract from loquat seeds” (Kochi Medical School, priority 2000, dated 2003).
# Tested on: rats
# Settings: Carter et al., Biochem. Pharmacol. 29, 301 (1980)
smiles,measurement,value
N#C[C@H](O[C@@H]1O[C@H](CO[C@@H]2O[C@H](CO)[C@@H](O)[C@H](O)[C@H]2O)[C@@H](O)[C@H](O)[C@H]1O)c1ccccc1 [amygdalin],lethal dose,600 mg
